According to patent US4442031A, “Immunopotentiating peptides” (Hoffmann-La Roche Inc., priority 1983, dated 1984):
Where no end group is shown, it is not given here.

Columns and labels:
[1] = system: Candida albicans ATCC 10231; test: Protective activity against Candida albicans infection in 5-FU immunosuppressed mice; assay type: in vivo; settings: for Survivors Day 8 / Survivors Day 15: ddY mice
Description: In a series of examples, the compounds of formula I were tested for protective activity against opportunistic infections in immunosuppressed mice. Female ddY mice (6 weeks old) weighing about 26 g were pretreated daily for ten days with 5-fluorouracil (5-FU) (25 mg/kg/day, i.p.) and with thymosin α1 or with compounds of formula I (i.p.) at varying dosages. The mice were then infected with Candida albicans ATCC 10231 (1×10^5 cells or more) at 24 hour after the last treatment. One control group was administered 5-FU and saline solution and a second control group received neither 5-FU nor compound of formula I prior to infection with Candida albicans. The number of animals surviving eight days after infection with Candida albicans and 15 days after infection with Candida albicans is presented in the table below.
(§1) Normal mice (female ddY mice, 6 weeks old) were highly tolerant to infection with Candida albicans ATCC 10231 at relatively low dose (1-2×10^5 cells, iv.). However, when pretreated daily for ten times with 5-FU (25 mg/kg/day, ip.), the mice were susceptible to infection as shown in Table 6. […] Compound A was also shown to be active against infection with Pseudomonas aeruginosa 5E81-1 and Listeria monocytogenes EGD in the immunosuppressed mice (see Tables 7 and 8).

[2] = system: delayed-type hypersensitivity (DTH); test: Restoration of delayed-type hypersensitivity (DTH) decreased by 5-FU in BDF1 mice; assay type: in vivo; settings: for DTH response %: % of control
Description: A poor prognosis is often observed in cancer patients with impaired immune response. Impaired immune response can be caused by the cancer itself, by chemotherapeutic agents, or by radiotherapy. Thus, therapeutic agents which restore impaired immune response in cancer patients are expected to play an important role in combination therapy. The restoration activity of the compounds of the invention on impaired cell-mediated immunity was determined by measuring the enhancement of delayed-type hypersensitivity (DTH), which was decreased to a great extent in mice treated with 5-fluorouracil (5-FU).
Female BDF1 mice (20-22 g, 11-12 weeks old) received (i.p. or p.o.) the compound to be tested on consecutive days one day before, concurrently with and 1 and 2 days after the 5-FU treatment. For DTH measurement, 10^8 chicken red blood cells (CRBC) were injected i.p. (or s.c. into the left hind footpad) and challenged s.c. into the right hind footpad at 3 and 7 days after the 5-FU treatment, respectively. Restoration activity was calculated by the following formula from the DTH response observed in the control group, 5-FU treated group treatment and the Test group treated both with 5-FU and the compound of the invention. Restoration activity was calculated by the formula: [formula]

[3] = Restoration of thymus weight decreased by 5-FU injection; assay type: in vivo, mice; settings: for Av. thymus weight mg: 8 days after 5-FU, control 39.4, 5-FU alone 23.4; for Av. thymus weight %: % of control; for Restoration Activity(%): thymus weight
Description: It is known that anticancer drugs suppress immunological functions by affecting immunocytes. The thymus gland, which is essential for differentiation, maturation and supply to T-cells responsible for immunological reactions, decreases markedly in weight after injection of 5-FU. […] FIfty μg/kg of Compound A administered orally was as effective as 5 μg/kg of thymosin α1 injected intraperitoneally, when the thymus weight was measured immediately after the DTH measurement at 8 days after the 5-FU injection (see Table 5).
*Seven mice per group received the test compound one day before,
concurrently with, and 1 and 2 days after 5FU injection i.p. (100 mg/kg).
The mice were injected CRBC for The DTH assay at 3 and 7 days after the
The thymus weight was measured at 8 days after the 5FU injection.

[4] = system: Pseudomonas aeruginosa 5E81-1; test: Protection against Pseudomonas aeruginosa infection in 5-FU immunosuppressed mice; assay type: in vivo; settings: Table 7, i.p., 5-FU immunosuppressed mice, control 0/30
Description: as §1

[5] = system: Listeria monocytogenes EGD; test: Protection against Listeria monocytogenes infection in 5-FU immunosuppressed mice; assay type: in vivo; settings: Table 8, i.p., 5-FU immunosuppressed mice, control 2/10
Description: as §1

[6] = system: Listeria monocytogenes EGD; test: Growth of Listeria monocytogenes in liver of P388 tumor-bearing mice; assay type: in vivo; settings: Tumor-bearing CDF1 mice, i.p., seven times before infection, 3 days after infection, control 7.1
Excerpt: The immunocompetence of tumor-bearing mice is known to be frequently deficient. This is illustrated by the fact that Listeria monocytogenes EGD grew considerably in tumor-bearing mice as compared to normal mice (see Table 9). Male CDF1 mice (6 weeks old) transplanted with P388 leukemia (3×10^5 cells, footpad) were infected with Listeria monocytogenes (2×10^3 cells, iv.) 7 days after the transplant. Three days thereafter the number of the bacteria grown in liver was counted.

[7] = Example 8, 40.0 μg/kg i.p. daily for ten days with 5-FU
[8] = Example 10, 0.4 μg/kg i.p. daily for ten days with 5-FU
[9] = Example 10, 4.0 μg/kg i.p. daily for ten days with 5-FU
[10] = Example 10, 40.0 μg/kg i.p. daily for ten days with 5-FU
[11] = Example 11, 4.0 μg/kg i.p. daily for ten days with 5-FU
[12] = Example 11, 40.0 μg/kg i.p. daily for ten days with 5-FU
[13] = Example 11, 400.0 μg/kg i.p. daily for ten days with 5-FU
[14] = Table 2, 5-FU plus 0.5 μg/kg/day, i.p.
[15] = Table 2, 5-FU plus 5.0 μg/kg/day, i.p.
[16] = Table 3, first experiment, 5-FU plus 5.0 μg/kg/day, i.p.
[17] = Table 4, 5-FU plus 5.0 μg/kg/day i.p.

For “thymosin α1 (SDAAVDTSSEITTKDLKEKKEVVEEAEN; ends and bridges not checked; UniProt P01252 2-29, looked up) [peptide isolated from bovine thymus, stimulates maturation, differentiation and function of T cells; U.S. Pat. No. 4,079,127, reference compound]”, the “Survivors Day 8” value [1, 7] was 5/7, the “Survivors Day 15” value [1, 7] was 5/7 and the “Survivors Day 8” value ([1]; Example 9, 40.0 μg/kg i.p. daily for ten days with 5-FU) was 4/7. The “Survivors Day 8” value [1, 8] was 3/10, the “Survivors Day 15” value [1, 8] was 3/10 and the “Survivors Day 8” value [1, 9] was 6/10. For the same substance, the “Survivors Day 15” value [1, 9] was 5/10, the “Survivors Day 8” value [1, 10] was 9/10 and the “Survivors Day 15” value [1, 10] was 8/10. The “Survivors Day 8” value [1, 11] was 3/10, the “Survivors Day 15” value [1, 11] was 3/10 and the “Survivors Day 8” value [1, 12] was 6/10. For the same substance, the “Survivors Day 15” value [1, 12] was 5/10, the “Survivors Day 8” value [1, 13] was 8/10 and the “Survivors Day 15” value [1, 13] was 8/10. The “Survivors at Day 8 after infection” value ([1]; Table 6, 40 μg/kg/day, i.p., ten times with 5-FU, control 1/7) was 4/7, the “Restoration Activity(%)” value [2, 14] was 1.3% and the DTH response % [2, 14] was 56.0%. The “DTH response av. ± S.E. (0.1 mm)” value ([2]; Table 2, 5-FU plus 0.5 μg/kg/day, i.p., control 10.3, 5-FU alone 5.7) was 5.8 ± 1.1 0.1 mm, the “Restoration Activity(%)” value [2, 15] was 50.3% and the DTH response % [2, 15] was 77.8%. The “DTH response av. ± S.E. (0.1 mm)” value ([2]; Table 2, 5-FU plus 5.0 μg/kg/day, i.p., control 10.3, 5-FU alone 5.7) was 8.0 ± 1.2 0.1 mm, the “DTH response av. ± S.E. (0.1 mm)” value ([2]; Table 3, first experiment (control 8.5, 5-FU alone 4.8), 5-FU plus 5.0 μg/kg/day, i.p.) was 7.3 ± 0.8 0.1 mm and the “Restoration Activity(%)” value [2, 16] was 68.7%. The DTH response % [2, 16] was 86.3%, the “DTH response av. ± S.E. (0.1 mm)” value ([2]; Table 4 (control 7.7, 5-FU alone 5.6), 5-FU plus 0.5 μg/kg/day i.p.) was 5.4 ± 1.2 0.1 mm and the “DTH response av. ± S.E. (0.1 mm)” value ([2]; Table 4 (control 7.7, 5-FU alone 5.6), 5-FU plus 5.0 μg/kg/day i.p.) was 7.3 ± 0.8 0.1 mm. The DTH response % ([2]; Table 4, 5-FU plus 0.5 μg/kg/day i.p.) was 70.1%, the “Restoration Activity(%)” value [2, 17] was 81.0% and the DTH response % [2, 17] was 94.8%. For the same substance, the “Av. thymus weight mg” value ([3]; 5-FU (100 mg/kg i.p.) plus 0.5 μg/kg/day i.p.) was 24.9 ± 1.7 mg, the “Av. thymus weight mg” value ([3]; 5-FU (100 mg/kg i.p.) plus 5.0 μg/kg/day i.p.) was 26.7 ± 1.1 mg and the “Av. thymus weight %” value ([3]; 5-FU plus 0.5 μg/kg/day i.p.) was 63.2%. The “Av. thymus weight %” value ([3]; 5-FU plus 5.0 μg/kg/day i.p.) was 67.8%, the “Restoration Activity(%)” value ([3]; 5-FU plus 0.5 μg/kg/day i.p.) was 9.4% and the “Restoration Activity(%)” value ([3]; 5-FU plus 5.0 μg/kg/day i.p.) was 20.6%. The “Survivors at Day 15 after infection” value ([4]; 0.4 μg/kg/day) was 7/20, the “Survivors at Day 15 after infection” value ([4]; 4 μg/kg/day) was 12/30 and the “Survivors at Day 15 after infection” value ([4]; 40 μg/kg/day) was 16/30. For the same substance, the “Survivors at Day 15 after infection” value ([5]; 4 μg/kg/day) was 7/10, the “Survivors at Day 15 after infection” value ([5]; 40 μg/kg/day) was 5/10 and the “Growth of Bacteria (log10 /liver)” value ([6]; 4 μg/kg/day) was 5.0 log10 /liver. For the same substance, the “Growth of Bacteria (log10 /liver)” value ([6]; 40 μg/kg/day) was 5.3 log10 /liver.
